Measurements as given in DBAASP.
Values after ≈ are worked out from the molar mass of the structure shown. Values joined by “and” are separate entries in the source; they are usually repeats but may differ in a detail not shown here. Equal values may be shown once. Blank lines part the entries; values can stand above or below the compound they belong to.

Experiments:
Assay in all cases: ≥ marks a high value that may be exact or a test limit, other limits are often not marked, values filed in µg/mL are converted to µM
[1] = test system: Acinetobacter calcoaceticus
Bacillus cereus = test system: Bacillus cereus
Bacillus pumilus = test system: Bacillus pumilus
[2] = test system: Candida albicans ATCC 2002
[3] = test system: Escherichia coli ATCC 25922
Pseudomonas aeruginosa = test system: Pseudomonas aeruginosa
Shigella dysenteriae = test system: Shigella dysenteriae
[4] = test system: Staphylococcus aureus ATCC 2592
[5] = test system: Bacillus subtilis ATCC 6633
Bacillus subtilis = test system: Bacillus subtilis
[6] = test system: Enterococcus faecalis ATCC 19433
[7] = test system: Enterococcus faecium ATCC 19434
[8] = test system: Enterococcus faecium NTCC 12697
[9] = test system: Escherichia coli ATCC 8739
Escherichia coli W160-37 = test system: Escherichia coli W160-37
[10] = test system: Klebsiella pneumoniae ATCC 13883
[11] = test system: Klebsiella pneumoniae ATCC 43816
[12] = test system: Proteus mirabilis CCUG 26767
[13] = test system: Pseudomonas aeruginosa ATCC 27853
[14] = test system: Pseudomonas aeruginosa ATCC 9027
[15] = test system: Salmonella enterica subsp. enterica serovar Typhimurium LT2
[16] = test system: Staphylococcus aureus ATCC 29213
[17] = test system: Staphylococcus aureus ATCC 8530
[18] = test system: Staphylococcus aureus NCTC 10788
[19] = test system: Staphylococcus aureus NCTC 12493
[20] = test system: Candida albicans ATCC 200955
[21] = test system: Enterococcus faecium ATCC 700221
[22] = test system: Staphylococcus aureus ATCC 25923
[23] = test system: Staphylococcus aureus ATCC 33591
Bacillus subtilis 168 = test system: Bacillus subtilis 168
[24] = test system: Candida glabrata CG196/98IDE
Candida krusei CK802/97 = test system: Candida krusei CK802/97
[25] = test system: Candida parapsilosis Z150/119/IDE99
Escherichia coli B = test system: Escherichia coli B
Staphylococcus aureus = test system: Staphylococcus aureus
[26] = test system: Bacillus subtilis IFO 3336
[27] = test system: Escherichia coli IFO 3301
Escherichia coli = test system: Escherichia coli
Proteus vulgaris = test system: Proteus vulgaris
Salmonella typhimurium = test system: Salmonella typhimurium
[28] = test system: Staphylococcus epidermidis
Streptococcus pyogenes = test system: Streptococcus pyogenes

MIC [1]: 16.8 µM (≈ 30 µg/mL)
MIC (Bacillus cereus): 16.8 µM (≈ 30 µg/mL)
MIC (Bacillus pumilus): 1.4 µM (≈ 2.5 µg/mL)
MIC [2]: 0.702 µM (≈ 1.25 µg/mL)
MIC [3]: 2.81 µM (≈ 5 µg/mL)
MIC (Pseudomonas aeruginosa): 4.21 µM (≈ 7.5 µg/mL)
MIC (Shigella dysenteriae): 5.61 µM (≈ 9.99 µg/mL)
MIC [4]: 1.4 µM (≈ 2.5 µg/mL)
Compound: CC[C@H](C)[C@H](NC(=O)[C@@H]1CCCN1C(=O)[C@H](Cc1ccccc1)NC(=O)[C@@H](N)Cc1ccccc1)C(=O)N[C@H](C(=O)NCC(=O)N[C@@H](CCCCN)C(=O)N[C@@H](CC(C)C)C(=O)N[C@@H](CC(C)C)C(=O)N[C@@H](Cc1ccccc1)C(=O)NCC(=O)N[C@@H](CC(C)C)C(=O)N[C@@H](Cc1ccccc1)C(=O)NCC(=O)N[C@@H](CC(C)C)C(=O)N[C@@H](CC(C)C)C(N)=O)C(C)C [FFPIVGKLLFGLFGLL]

MIC [1]: ≥ 37.5 µM
MIC (Bacillus cereus): ≥ 46.8 µM
MIC (Bacillus pumilus): 4.68 µM (≈ 7.5 µg/mL)
MIC [2]: 1.56 µM (≈ 2.5 µg/mL)
MIC [3]: 3.12 µM (≈ 5 µg/mL)
MIC (Pseudomonas aeruginosa): 1.56 µM (≈ 2.5 µg/mL)
MIC (Shigella dysenteriae): 12.5 µM (≈ 20 µg/mL)
MIC [4]: 1.56 µM (≈ 2.5 µg/mL)
Compound: CC[C@H](C)[C@H](NC(=O)[C@@H]1CCCN1C(=O)[C@H](CC(C)C)NC(=O)[C@@H](N)Cc1ccccc1)C(=O)N[C@H](C(=O)NCC(=O)N[C@@H](CCCCN)C(=O)N[C@@H](CC(C)C)C(=O)N[C@@H](CC(C)C)C(=O)N[C@@H](CO)C(=O)NCC(=O)N[C@@H](CC(C)C)C(=O)N[C@@H](CO)C(=O)NCC(=O)N[C@@H](CC(C)C)C(=O)N[C@@H](CO)C(N)=O)C(C)C [FLPIVGKLLSGLSGLS]

MIC [5]: ≥ 200 µM
MIC (Bacillus subtilis): ≥ 50.1 µM
MIC [6]: ≥ 100 µM
MIC [7]: ≥ 50.1 µM
MIC [8]: 16 µM (≈ 23.9 µg/mL)
MIC [3]: 200 µM (≈ 300 µg/mL)
MIC [9]: ≥ 32 µM
MIC (Escherichia coli W160-37): ≥ 100 µM
MIC [10]: ≥ 401 µM
MIC [11]: ≥ 64 µM
MIC [12]: ≥ 401 µM
MIC [13]: > 401 µM
MIC [14]: 128 µM (≈ 191 µg/mL)
MIC [15]: ≥ 200 µM
MIC [16]: 200 µM (≈ 300 µg/mL)
MIC [17]: ≥ 200 µM
MIC [18]: 2 µM (≈ 2.99 µg/mL)
MIC [19]: 4 µM (≈ 5.98 µg/mL)
Compound: CC[C@H](C)[C@H](NC(=O)[C@H](CC(C)C)NC(=O)[C@@H]1CCCN1C(=O)[C@H](CC(C)C)NC(=O)[C@@H](N)Cc1ccccc1)C(=O)N[C@@H](CC(C)C)C(=O)N[C@@H](CCCN=C(N)N)C(=O)N[C@@H](CCCCN)C(=O)N[C@H](C(=O)N[C@H](C(=O)N[C@H](C(=O)N[C@@H](C)C(=O)N[C@@H](CC(C)C)C(N)=O)[C@@H](C)O)C(C)C)[C@@H](C)CC [FLPLILRKIVTAL]

MIC [20]: 28.4 µM (≈ 33.6 µg/mL)
MIC [21]: 9.5 µM (≈ 11.2 µg/mL)
MIC [13]: 28.4 µM (≈ 33.6 µg/mL)
MIC [22]: 1.69 µM (≈ 2 µg/mL)
MIC [23]: 9.5 µM (≈ 11.2 µg/mL)
Compound: CC[C@H](C)[C@H](NC(=O)[C@H](Cc1c[nH]c2ccccc12)NC(=O)[C@H](CCCCN)NC(=O)[C@H](CC(C)C)NC(=O)[C@H](CC(C)C)NC(=O)CN)C(=O)N[C@@H](CCCCN)C(=O)N[C@H](C(=O)N[C@@H](CC(C)C)C(=O)N[C@@H](CC(C)C)C(N)=O)[C@@H](C)O [GLLKWIKTLL]

MIC (Bacillus subtilis 168): 0.9 µM (≈ 1.31 µg/mL)
MIC [24]: ≥ 40 µM and 25 µM and 30 µM
MIC (Candida krusei CK802/97): 30 µM and 15 µM and 20 µM
MIC [25]: 30 µM and 15 µM
MIC (Escherichia coli B): 1.8 µM (≈ 2.61 µg/mL)
MIC (Pseudomonas aeruginosa): 16.3 µM (≈ 23.6 µg/mL)
MIC (Staphylococcus aureus): 8.4 µM (≈ 12.2 µg/mL)
Compound: CC[C@H](C)[C@H](NC(=O)[C@H](CC(C)C)NC(=O)[C@H](Cc1cnc[nH]1)NC(=O)CNC(=O)[C@H](CC(C)C)NC(=O)[C@@H](NC(=O)[C@H](CCCCN)NC(=O)[C@H](CCCCN)NC(=O)[C@H](Cc1c[nH]c2ccccc12)NC(=O)[C@H](CCSC)NC(=O)CN)[C@@H](C)CC)C(=O)N[C@@H](CCCN=C(N)N)C(N)=O [GMWKKILGHLIR]

MIC [26]: 5.62 µM (≈ 10 µg/mL)
MIC [27]: 5.62 µM (≈ 10 µg/mL)
Compound: NC(N)=NCCC[C@H](NC(=O)[C@H](Cc1cnc[nH]1)NC(=O)[C@H](CCCN=C(N)N)NC(=O)[C@H](Cc1cnc[nH]1)NC(=O)[C@H](CCCN=C(N)N)NC(=O)[C@H](Cc1cnc[nH]1)NC(=O)[C@H](CCCN=C(N)N)NC(=O)[C@H](Cc1cnc[nH]1)NC(=O)[C@H](CCCN=C(N)N)NC(=O)[C@H](Cc1cnc[nH]1)NC(=O)[C@@H](N)CCCN=C(N)N)C(=O)N[C@@H](Cc1cnc[nH]1)C(=O)O [RHRHRHRHRHRH]

MIC [26]: ≥ 827 µM
MIC [27]: ≥ 827 µM
Compound: NC(N)=NCCC[C@H](NC(=O)[C@H](Cc1cnc[nH]1)NC(=O)[C@@H](N)CCCN=C(N)N)C(=O)N[C@@H](Cc1cnc[nH]1)C(=O)O [RHRH]

MIC (Bacillus subtilis): ≥ 64 µM
MIC (Escherichia coli): 64 µM (≈ 210 µg/mL)
MIC (Proteus vulgaris): ≥ 64 µM
MIC (Pseudomonas aeruginosa): 64 µM (≈ 210 µg/mL)
MIC (Salmonella typhimurium): 2 µM (≈ 6.55 µg/mL)
MIC [28]: ≥ 64 µM
MIC (Streptococcus pyogenes): ≥ 64 µM
Compound: CC[C@H](C)[C@H](NC(=O)[C@H](Cc1ccc(O)cc1)NC(=O)[C@@H](NC(=O)[C@@H]1CCCN1C(=O)[C@H](CCCN=C(N)N)NC(=O)[C@H](CC(N)=O)NC(=O)[C@H](CC(N)=O)NC(=O)CNC(=O)[C@@H]1CCCN1C(=O)[C@H](CCC(=O)O)NC(=O)[C@H](C)NC(=O)[C@H](CCC(=O)O)NC(=O)[C@@H]1CCCN1C(=O)[C@H](CCC(=O)O)NC(=O)[C@H](C)NC(=O)[C@H](CCC(=O)O)NC(=O)[C@H](CCCN=C(N)N)NC(=O)[C@@H](N)CCCN=C(N)N)C(C)C)C(=O)N1CCC[C@H]1C(=O)N[C@@H](CCC(N)=O)C(=O)N1CCC[C@H]1C(=O)N[C@@H](CCCN=C(N)N)C(=O)N1CCC[C@H]1C(=O)N1CCC[C@H]1C(=O)N[C@@H](Cc1cnc[nH]1)C(=O)N1CCC[C@H]1C(=O)N[C@@H](CCCN=C(N)N)C(=O)N[C@@H](CC(C)C)C(=O)O [RREAEPEAEPGNNRPVYIPQPRPPHPRL]
